Columns and labels:
[1] = target: Serine/threonine-protein kinase 25 (Homo sapiens) (UniProt O00506)
[2] = target: Serine/threonine-protein kinase 16 (Homo sapiens) (UniProt O75716)
[3] = target: Dual specificity protein kinase CLK1 (Homo sapiens) (UniProt P49759)
[4] = target: Serine/threonine-protein kinase Nek6 (Homo sapiens) (UniProt Q9HC98)
[5] = target: Serine/threonine-protein kinase 10 (Homo sapiens) (UniProt O94804)
[6] = target: Serine/threonine-protein kinase 26 (Homo sapiens) (UniProt Q9P289)
Chain of Serine/threonine-protein kinase 26 (Homo sapiens) (Q9P289 2-416 limits assumed): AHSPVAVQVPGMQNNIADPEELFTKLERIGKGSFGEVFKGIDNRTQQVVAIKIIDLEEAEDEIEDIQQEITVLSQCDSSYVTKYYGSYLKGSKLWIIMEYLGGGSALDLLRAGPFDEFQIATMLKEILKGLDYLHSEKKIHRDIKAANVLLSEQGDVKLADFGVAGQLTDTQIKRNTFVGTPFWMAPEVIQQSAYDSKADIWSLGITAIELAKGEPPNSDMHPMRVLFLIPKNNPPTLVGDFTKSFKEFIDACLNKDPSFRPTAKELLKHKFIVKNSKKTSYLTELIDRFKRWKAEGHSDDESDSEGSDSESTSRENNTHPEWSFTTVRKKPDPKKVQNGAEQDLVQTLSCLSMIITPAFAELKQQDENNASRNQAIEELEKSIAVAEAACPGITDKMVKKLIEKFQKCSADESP

[7] = target: Serine/threonine-protein kinase PAK 6 (Homo sapiens) (UniProt Q9NQU5)
[8] = target: Calcium/calmodulin-dependent protein kinase type II subunit alpha (Homo sapiens) (UniProt Q9UQM7)
[9] = target: STE20-like serine/threonine-protein kinase (Homo sapiens) (UniProt Q9H2G2)
Chain of STE20-like serine/threonine-protein kinase (Homo sapiens) (Q9H2G2 whole entry, looked up): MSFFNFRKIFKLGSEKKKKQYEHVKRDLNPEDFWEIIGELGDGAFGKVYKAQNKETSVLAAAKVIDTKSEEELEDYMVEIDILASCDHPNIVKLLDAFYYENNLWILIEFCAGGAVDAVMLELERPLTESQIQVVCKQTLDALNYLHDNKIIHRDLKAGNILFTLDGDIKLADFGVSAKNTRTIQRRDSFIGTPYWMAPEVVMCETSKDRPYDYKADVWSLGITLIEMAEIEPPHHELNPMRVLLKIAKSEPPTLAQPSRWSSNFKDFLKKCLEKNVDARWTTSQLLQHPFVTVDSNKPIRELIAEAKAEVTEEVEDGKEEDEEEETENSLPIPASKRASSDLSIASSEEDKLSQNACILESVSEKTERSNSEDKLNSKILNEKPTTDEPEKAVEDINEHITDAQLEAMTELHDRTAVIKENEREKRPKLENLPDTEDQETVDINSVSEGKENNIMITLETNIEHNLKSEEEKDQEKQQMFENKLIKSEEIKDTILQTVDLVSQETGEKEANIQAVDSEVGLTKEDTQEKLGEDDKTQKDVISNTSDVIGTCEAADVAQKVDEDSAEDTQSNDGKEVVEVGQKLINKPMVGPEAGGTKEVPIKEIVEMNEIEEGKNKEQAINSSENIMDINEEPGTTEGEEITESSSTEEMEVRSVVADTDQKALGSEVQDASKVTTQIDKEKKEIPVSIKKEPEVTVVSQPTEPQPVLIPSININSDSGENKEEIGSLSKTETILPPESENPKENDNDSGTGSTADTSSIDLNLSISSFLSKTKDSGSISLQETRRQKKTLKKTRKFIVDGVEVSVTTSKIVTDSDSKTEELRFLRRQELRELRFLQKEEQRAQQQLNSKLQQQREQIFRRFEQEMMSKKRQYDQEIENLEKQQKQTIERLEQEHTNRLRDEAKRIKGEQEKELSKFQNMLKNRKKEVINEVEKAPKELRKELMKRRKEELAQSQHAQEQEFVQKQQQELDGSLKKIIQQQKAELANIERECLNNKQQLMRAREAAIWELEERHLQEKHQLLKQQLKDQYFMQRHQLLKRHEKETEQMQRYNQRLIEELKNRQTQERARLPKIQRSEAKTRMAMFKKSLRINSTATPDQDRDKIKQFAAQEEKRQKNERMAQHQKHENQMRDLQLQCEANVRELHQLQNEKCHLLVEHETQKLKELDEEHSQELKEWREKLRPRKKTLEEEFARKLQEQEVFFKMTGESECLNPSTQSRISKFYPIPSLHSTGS

[10] = target: Tyrosine-protein kinase JAK1 (Homo sapiens) (UniProt P23458)
[11] = target: T1, Lymphokine-activated killer T-cell-originated protein kinase (Homo sapiens) (UniProt Q96KB5)
T1 sequence (whole entry): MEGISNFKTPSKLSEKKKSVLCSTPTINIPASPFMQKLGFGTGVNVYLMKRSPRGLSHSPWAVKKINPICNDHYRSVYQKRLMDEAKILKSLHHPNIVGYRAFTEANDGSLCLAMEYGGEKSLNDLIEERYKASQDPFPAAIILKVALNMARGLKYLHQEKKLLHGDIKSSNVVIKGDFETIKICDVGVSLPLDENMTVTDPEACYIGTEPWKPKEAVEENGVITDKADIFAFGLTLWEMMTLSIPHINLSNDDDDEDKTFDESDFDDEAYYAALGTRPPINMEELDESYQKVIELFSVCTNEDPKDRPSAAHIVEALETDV

[12] = target: T2, 3-phosphoinositide-dependent protein kinase 1 (Homo sapiens) (UniProt O15530)
T2 sequence (whole entry): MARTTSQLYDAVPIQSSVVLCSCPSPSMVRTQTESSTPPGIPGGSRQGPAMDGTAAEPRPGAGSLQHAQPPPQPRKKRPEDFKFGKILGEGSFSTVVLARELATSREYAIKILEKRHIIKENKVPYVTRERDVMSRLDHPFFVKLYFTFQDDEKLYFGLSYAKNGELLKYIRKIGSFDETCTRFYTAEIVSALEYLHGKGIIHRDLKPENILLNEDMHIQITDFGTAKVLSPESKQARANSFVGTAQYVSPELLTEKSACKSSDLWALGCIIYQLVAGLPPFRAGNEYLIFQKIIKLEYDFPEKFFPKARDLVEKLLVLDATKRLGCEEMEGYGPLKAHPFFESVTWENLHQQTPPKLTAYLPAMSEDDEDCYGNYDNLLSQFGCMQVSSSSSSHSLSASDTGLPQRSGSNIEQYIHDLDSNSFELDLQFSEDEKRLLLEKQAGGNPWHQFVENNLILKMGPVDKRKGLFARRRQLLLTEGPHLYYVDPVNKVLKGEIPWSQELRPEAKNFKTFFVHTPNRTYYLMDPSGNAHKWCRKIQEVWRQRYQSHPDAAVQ

[13] = target: Ribosomal protein S6 kinase alpha-3 (Homo sapiens) (UniProt P51812)
Chain of Ribosomal protein S6 kinase alpha-3 (Homo sapiens) (P51812 whole entry): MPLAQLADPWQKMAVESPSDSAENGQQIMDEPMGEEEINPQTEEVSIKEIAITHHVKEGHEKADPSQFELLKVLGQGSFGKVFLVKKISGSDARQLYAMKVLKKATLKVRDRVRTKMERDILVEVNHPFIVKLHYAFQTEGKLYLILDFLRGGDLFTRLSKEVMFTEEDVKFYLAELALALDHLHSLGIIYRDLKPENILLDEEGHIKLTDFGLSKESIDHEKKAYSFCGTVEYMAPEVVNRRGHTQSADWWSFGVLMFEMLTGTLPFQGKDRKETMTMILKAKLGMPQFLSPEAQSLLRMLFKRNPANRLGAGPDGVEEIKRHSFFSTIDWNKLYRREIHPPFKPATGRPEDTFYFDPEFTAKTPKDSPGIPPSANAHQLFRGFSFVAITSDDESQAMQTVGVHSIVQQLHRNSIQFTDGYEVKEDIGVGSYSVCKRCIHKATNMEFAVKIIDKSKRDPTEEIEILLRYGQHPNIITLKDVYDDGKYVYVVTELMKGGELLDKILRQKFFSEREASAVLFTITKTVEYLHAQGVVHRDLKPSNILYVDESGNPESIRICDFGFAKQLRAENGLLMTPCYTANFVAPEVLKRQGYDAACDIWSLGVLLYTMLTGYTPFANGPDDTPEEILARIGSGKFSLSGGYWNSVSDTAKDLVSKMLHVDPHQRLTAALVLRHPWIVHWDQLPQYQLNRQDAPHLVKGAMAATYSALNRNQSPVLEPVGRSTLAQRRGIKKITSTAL

[14] = target: T3, Serine/threonine-protein kinase Nek2 (Homo sapiens) (UniProt P51955)
T3 sequence (whole entry): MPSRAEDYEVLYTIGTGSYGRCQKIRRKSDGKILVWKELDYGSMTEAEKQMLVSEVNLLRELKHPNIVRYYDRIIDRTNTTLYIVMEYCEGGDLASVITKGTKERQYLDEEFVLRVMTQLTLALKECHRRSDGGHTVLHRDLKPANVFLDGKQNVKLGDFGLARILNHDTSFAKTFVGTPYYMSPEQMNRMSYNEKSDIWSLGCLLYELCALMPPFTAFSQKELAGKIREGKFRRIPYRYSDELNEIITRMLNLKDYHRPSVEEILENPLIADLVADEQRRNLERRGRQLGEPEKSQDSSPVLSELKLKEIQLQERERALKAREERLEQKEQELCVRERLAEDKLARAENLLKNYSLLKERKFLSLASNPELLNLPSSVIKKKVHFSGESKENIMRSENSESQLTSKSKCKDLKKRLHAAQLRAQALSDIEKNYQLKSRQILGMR

[15] = target: T4, Calcium/calmodulin-dependent protein kinase type IV (Homo sapiens) (UniProt Q16566)
T4 sequence (whole entry): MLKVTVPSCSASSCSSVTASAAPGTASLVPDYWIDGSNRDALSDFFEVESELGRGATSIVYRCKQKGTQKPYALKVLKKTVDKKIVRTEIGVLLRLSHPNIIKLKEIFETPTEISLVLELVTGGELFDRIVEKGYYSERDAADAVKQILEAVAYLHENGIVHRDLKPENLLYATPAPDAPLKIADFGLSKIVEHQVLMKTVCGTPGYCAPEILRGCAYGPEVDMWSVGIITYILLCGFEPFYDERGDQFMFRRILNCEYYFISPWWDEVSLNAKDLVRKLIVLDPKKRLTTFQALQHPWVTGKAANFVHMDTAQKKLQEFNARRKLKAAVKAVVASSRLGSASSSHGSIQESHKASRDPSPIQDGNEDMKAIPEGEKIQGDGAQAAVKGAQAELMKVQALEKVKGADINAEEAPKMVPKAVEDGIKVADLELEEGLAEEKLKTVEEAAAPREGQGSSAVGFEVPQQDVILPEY

[16] = target: Cyclin-dependent kinase 6 (Homo sapiens) (UniProt Q00534)
Chain of Cyclin-dependent kinase 6 (Homo sapiens) (Q00534 whole entry): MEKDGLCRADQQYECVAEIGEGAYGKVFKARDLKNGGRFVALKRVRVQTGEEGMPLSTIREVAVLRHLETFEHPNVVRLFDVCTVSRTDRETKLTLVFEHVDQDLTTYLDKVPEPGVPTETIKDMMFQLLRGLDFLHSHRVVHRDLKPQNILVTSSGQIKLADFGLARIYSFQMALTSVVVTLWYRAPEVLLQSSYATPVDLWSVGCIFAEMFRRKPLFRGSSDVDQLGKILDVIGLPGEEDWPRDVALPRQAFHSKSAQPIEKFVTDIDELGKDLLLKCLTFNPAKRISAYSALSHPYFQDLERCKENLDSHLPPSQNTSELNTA

[17] = target: Calcium/calmodulin-dependent protein kinase type II subunit gamma (Homo sapiens) (UniProt Q13555)
Chain of Calcium/calmodulin-dependent protein kinase type II subunit gamma (Homo sapiens) (Q13555 whole entry): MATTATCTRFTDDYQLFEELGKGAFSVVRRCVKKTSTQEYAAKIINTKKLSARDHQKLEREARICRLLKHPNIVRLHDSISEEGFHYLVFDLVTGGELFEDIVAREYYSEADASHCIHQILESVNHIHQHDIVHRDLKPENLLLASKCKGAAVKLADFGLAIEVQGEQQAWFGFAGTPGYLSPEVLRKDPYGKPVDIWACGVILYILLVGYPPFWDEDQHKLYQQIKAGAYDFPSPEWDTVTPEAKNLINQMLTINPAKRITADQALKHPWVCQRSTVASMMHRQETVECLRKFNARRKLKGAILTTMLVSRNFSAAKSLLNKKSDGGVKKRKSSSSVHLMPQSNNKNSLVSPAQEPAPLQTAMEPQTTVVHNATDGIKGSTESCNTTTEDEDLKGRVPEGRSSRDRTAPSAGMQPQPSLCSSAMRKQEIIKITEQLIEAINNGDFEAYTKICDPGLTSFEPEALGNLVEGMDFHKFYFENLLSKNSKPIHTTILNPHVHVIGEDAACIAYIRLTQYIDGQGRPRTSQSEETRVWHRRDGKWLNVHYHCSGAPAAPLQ

[18] = target: Serine/threonine-protein kinase pim-3 (Homo sapiens) (UniProt Q86V86)

Chain of Serine/threonine-protein kinase 10 (Homo sapiens) (O94804 whole entry, looked up): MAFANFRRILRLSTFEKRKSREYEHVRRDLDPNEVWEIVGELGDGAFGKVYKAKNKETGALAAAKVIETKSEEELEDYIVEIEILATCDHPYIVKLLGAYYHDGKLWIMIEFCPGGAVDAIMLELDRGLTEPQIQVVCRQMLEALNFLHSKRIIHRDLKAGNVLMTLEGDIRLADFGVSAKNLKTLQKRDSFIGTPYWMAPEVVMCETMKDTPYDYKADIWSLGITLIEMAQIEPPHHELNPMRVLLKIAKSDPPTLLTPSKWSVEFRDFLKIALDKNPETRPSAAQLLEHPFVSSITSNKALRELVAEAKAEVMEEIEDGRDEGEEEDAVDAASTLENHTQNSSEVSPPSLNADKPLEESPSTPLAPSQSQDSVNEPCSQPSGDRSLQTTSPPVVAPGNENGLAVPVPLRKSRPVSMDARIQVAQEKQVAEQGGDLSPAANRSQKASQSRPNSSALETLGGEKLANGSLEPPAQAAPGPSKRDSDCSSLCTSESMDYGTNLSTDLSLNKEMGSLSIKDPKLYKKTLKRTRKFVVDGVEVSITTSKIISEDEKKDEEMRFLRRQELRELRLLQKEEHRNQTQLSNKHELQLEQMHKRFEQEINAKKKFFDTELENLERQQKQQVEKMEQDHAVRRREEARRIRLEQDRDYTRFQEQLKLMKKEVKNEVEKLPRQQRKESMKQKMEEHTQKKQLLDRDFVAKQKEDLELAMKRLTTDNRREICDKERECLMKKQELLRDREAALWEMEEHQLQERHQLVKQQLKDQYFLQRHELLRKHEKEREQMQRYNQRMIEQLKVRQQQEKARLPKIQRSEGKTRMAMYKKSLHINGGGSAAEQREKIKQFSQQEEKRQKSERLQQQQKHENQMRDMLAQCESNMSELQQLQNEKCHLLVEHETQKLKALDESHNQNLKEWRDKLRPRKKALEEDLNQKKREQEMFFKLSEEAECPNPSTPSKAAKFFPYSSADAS
Chain of Serine/threonine-protein kinase 16 (Homo sapiens) (O75716 whole entry): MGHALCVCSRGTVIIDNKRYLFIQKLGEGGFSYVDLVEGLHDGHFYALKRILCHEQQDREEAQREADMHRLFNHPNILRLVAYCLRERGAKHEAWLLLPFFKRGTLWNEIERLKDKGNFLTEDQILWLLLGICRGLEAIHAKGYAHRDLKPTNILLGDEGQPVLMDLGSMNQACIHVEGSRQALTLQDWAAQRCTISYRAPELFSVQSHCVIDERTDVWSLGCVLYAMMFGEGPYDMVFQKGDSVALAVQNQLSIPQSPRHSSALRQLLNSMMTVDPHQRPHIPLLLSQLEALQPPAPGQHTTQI

| Compound | ΔTm [1] [°C] | ΔTm [2] [°C] | ΔTm [3] [°C] | ΔTm [4] [°C] | ΔTm [5] [°C] | ΔTm [6] [°C] | ΔTm [7] [°C] | ΔTm [8] [°C] | ΔTm [9] [°C] | ΔTm [10] [°C] | ΔTm [12] [°C] | ΔTm [13] [°C] | ΔTm [14] [°C] | ΔTm [15] [°C] | ΔTm [16] [°C] | ΔTm [17] [°C] | ΔTm [18] [°C] | ΔTm [11] [°C] |
| --- | --- | --- | --- | --- | --- | --- | --- | --- | --- | --- | --- | --- | --- | --- | --- | --- | --- | --- |
| Cc1nc2sccn2c(=O)c1CCN1CCC(=C(c2ccccc2)c2ccc(F)cc2)CC1 | 0.3 | 3.1 | 6.5 | 0.1 | 3.1 | -0.1 | 0.8 | 1.3 | 1 | 4.8 | -0.8 | 2.9 | 0.1 | -0.2 | 0 | 1.1 | 6.1 | -0.5 |
| COc1cc(O)c2c(c1)oc(=O)c1c3cc(O)c(O)cc3oc21 [WEDELOLACTONE] | 2.7 | 0.1 | 2.6 | 0.4 | 1.3 | 1.4 | -0.6 | 1.2 | 1.3 | 2.2 | -0.4 | 1 | 2 | 0.8 | 0.6 | 0.2 | 5.9 | 0 |
| Cc1ccc(NC(=O)c2cccc(N(C)C)c2)cc1NC(=O)c1ccc(O)cc1 | -0.3 | 0.5 | -0.2 | 0.3 | 0.1 | 0.7 | 0.6 | 0.1 | 0.9 | 0.1 | -0.4 | -0.1 | 0.3 | 0 | -0.4 | 0.1 | 0.6 | 0.4 |
| N#CCCc1ccc2c(c1)-c1[nH]c3ccc([N+](=O)[O-])cc3c1CC(=O)N2 [ALSTERPAULLONE 2] | 4.2 | 3 | 3.1 | 0.8 | 4 | 3.5 | 2.3 | 0.4 | 1.8 | 1.4 | -0.4 | 1.4 | 2.2 | 0.4 | 3.2 | 0.1 | 1.9 | 0 |
| O=C1c2ccccc2-[n+]2ccc3c([nH]c4ccccc43)c21 [FASCAPLYSIN CHLORIDE] | -1.5 | -0.1 | -1.9 | -0.1 | -1.8 | -0.8 | -0.9 | -0.5 | -0.9 | -1.5 | -2.7 | 0.7 | -2 | 0.7 | 0.2 | -1.8 | 0 | 0.6 |

Second part, led by results:

| ΔTm [1] [°C] | ΔTm [2] [°C] | ΔTm [3] [°C] | ΔTm [4] [°C] | ΔTm [5] [°C] | ΔTm [6] [°C] | ΔTm [7] [°C] | ΔTm [8] [°C] | ΔTm [9] [°C] | ΔTm [10] [°C] | ΔTm [12] [°C] | ΔTm [13] [°C] | ΔTm [14] [°C] | ΔTm [15] [°C] | ΔTm [16] [°C] | ΔTm [17] [°C] | ΔTm [18] [°C] | Compound | ΔTm [11] [°C] |
| --- | --- | --- | --- | --- | --- | --- | --- | --- | --- | --- | --- | --- | --- | --- | --- | --- | --- | --- |
| 5.3 | 0.3 | 4.3 | 0.8 | 7.7 | 6.3 | -4.4 | 3 | 6.2 | 3.6 | 0.4 | -0.1 | 2.8 | 2.6 | -0.9 | 1.2 | 1.7 | CN(C)S(=O)(=O)c1ccc2c(c1)/C(=C/c1cc3c([nH]1)CCCC3)C(=O)N2 | 1 |
| 0.2 | 1.1 | 2 | 0 | 0.4 | 0 | -0.1 | 0.5 | -0.1 | 0 | 0.1 | -0.2 | 0.9 | 0 | 0.9 | 0.3 | 3.5 | O=S(=O)(c1cccc2c(Cl)cccc12)N1CCCNCC1 | 0 |
| 0 | 0.2 | 0.1 | -0.1 | 0.4 | 1.1 | 0.4 | 0.6 | 0 | -5 | -0.1 | -0.1 | 1.3 | 0.5 | 0.3 | 0.1 | 0.8 | N#C/C(=C(/N)Sc1ccc(N)cc1)c1ccccc1C(F)(F)F | -0.4 |
| 2.7 | 2.1 | 6.3 | 0.9 | 6.7 | 3.1 | 2.4 | 2.4 | 6.8 | 1.5 | -0.2 | 0.8 | 0.7 | 1.1 | 0.4 | 2.9 | 9.1 | CN(C)CCCn1cc(C2=C(c3c[nH]c4ccccc34)C(=O)NC2=O)c2ccccc21 [GF-109203] | 0.2 |
| 0.7 | 1.2 | 1 | -0.7 | 5.3 | 1.2 | 0.7 | 1.4 | 4.5 | -2.8 | 0 | 0.1 | 1.1 | 0.1 | 1 | 1.1 | 4.7 | Cl.Cn1cc(C2=C(c3ccc4cc5n(c4c3)CCC(CN)C5)C(=O)NC2=O)c2ccccc21 (stereo not drawn) | -0.6 |
| -0.2 | 0.2 | 0.9 | -0.4 | 0.8 | 0 | 0.2 | 0.7 | 0.1 | 0.2 | -0.2 | 0.2 | 0.7 | -0.1 | -0.1 | 0.4 | 3.2 | NCCNS(=O)(=O)c1cccc2c(Cl)cccc12 | -0.2 |

— ChEMBL document CHEMBL1145498, “A systematic interaction map of validated kinase inhibitors with Ser/Thr kinases” (Proc Natl Acad Sci U S A, 2007)
